Measurements as given in patent publication US5444042A, “Method of treatment of neurodegeneration with calpain inhibitors” (Cortex Pharmaceuticals, priority 1994, dated 1995).

Assays:
[1] = molecular target: T1, Papain (Carica papaya, UniProt P00784); test: Papain inhibition, Ki by Dixon plot (Table PKC1); assay type: biochemical; conditions: 0.05M Tris-HCl pH 7.5, 2 mM EDTA, 5 mM cysteine, 1% DMSO, 25° C., substrate Nα-Benzoyl-Arg-AMC; read-out: Ki P (Papain)
T1 sequence (P00784 134-345): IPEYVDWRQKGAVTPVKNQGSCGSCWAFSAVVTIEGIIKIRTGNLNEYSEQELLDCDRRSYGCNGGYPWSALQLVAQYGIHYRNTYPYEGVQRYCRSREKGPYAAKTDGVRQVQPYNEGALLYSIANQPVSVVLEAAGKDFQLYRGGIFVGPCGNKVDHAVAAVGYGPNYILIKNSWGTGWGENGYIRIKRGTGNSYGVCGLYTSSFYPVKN
Procedure: Various concentrations of inhibitors in dimethylsulfoxide (DMSO) were added to the assay mixture, which contained buffer and substrate. The reaction was started by the addition of the enzyme and the hydrolysis rates were followed spectrophotometrically or fluorimetrically. 88 mM KH2 PO4, 12 mM Na2 HPO4, 1.33 mM EDTA, 2.7 mM cysteine, pH 6.0 was used as a buffer for cathepsin B; and 20 mM Hepes, 10 mM CaCl2, 10 mM β-mercaptoethanol, pH 7.2 buffer was utilized for calpain I and calpain II.
All peptide thioester hydrolysis rates were measured with assay mixtures containing 4,4'-dithiodipyridine [e324=19800 M-1 cm-1; Grasetti & Murray, Arch. Biochem. Biophys. 119, pp 41-49 (1967)]. Papain was assayed with Bz-Arg-AMC or Bz-Arg-NA [Kanaoka et al., Chem. Pharm. Bull. 25, 3126-3128 (1977)], and the AMC (7-amino-4-methylcoumarin) release was followed fluorimetrically (excitation at 380 nm, and emission at 460 nm). Cathepsin B was assayed with Z-Arg-Arg-AFC [Barrett and Kirschke, Methods Enzymol. 80, 535-561 (1981)], and the AFC (7-amino-4-trifluoromethylcoumarin) release was followed fluorimetrically (excitation at 400 nm, and emission at 505 nm). Calpain I from human erythrocytes and calpain II from rabbit were assayed using Suc-Leu-Tyr-AMC [Sasaki et al., J. Biol. Chem. 259, 12489-12494 (1984), hereby incorporated by reference], and the AMC (7-amino-4-methylcoumarin) release was followed fluorimetrically (excitation at 380 nm, and emission at 460 nm). Enzymatic hydrolysis rates were measured at various substrate and inhibitor concentrations, and Ki values were determined by Dixon plot.
The inhibition constants for papain shown in Table PKC1 were measured in 0.05M Tris-HCl, pH 7.5 buffer, containing 2 mM EDTA, 5 mM cysteine (freshly prepared), 1% DMSO, at 25° C., using N^α -Benzoyl-Arg-AMC as a substrate, except that those values of inhibition constants for papain marked with an "e" in Table PKC1 were measured in 50 mM Tris-HCl, pH 7.5 buffer, containing 20 mM EDTA, 5 mM cysteine, 9% DMSO, at 25° C., using N^α -Benzoyl-Arg-NA as a substrate.

[2] = molecular target: T2, Calpain II (Homo sapiens, UniProt P17655); test: Calpain II 14C-methylated casein proteolysis (Table 1A); assay type: biochemical
T2 construct: from tissue; purified by a cited method
T2 sequence (P17655 1-700): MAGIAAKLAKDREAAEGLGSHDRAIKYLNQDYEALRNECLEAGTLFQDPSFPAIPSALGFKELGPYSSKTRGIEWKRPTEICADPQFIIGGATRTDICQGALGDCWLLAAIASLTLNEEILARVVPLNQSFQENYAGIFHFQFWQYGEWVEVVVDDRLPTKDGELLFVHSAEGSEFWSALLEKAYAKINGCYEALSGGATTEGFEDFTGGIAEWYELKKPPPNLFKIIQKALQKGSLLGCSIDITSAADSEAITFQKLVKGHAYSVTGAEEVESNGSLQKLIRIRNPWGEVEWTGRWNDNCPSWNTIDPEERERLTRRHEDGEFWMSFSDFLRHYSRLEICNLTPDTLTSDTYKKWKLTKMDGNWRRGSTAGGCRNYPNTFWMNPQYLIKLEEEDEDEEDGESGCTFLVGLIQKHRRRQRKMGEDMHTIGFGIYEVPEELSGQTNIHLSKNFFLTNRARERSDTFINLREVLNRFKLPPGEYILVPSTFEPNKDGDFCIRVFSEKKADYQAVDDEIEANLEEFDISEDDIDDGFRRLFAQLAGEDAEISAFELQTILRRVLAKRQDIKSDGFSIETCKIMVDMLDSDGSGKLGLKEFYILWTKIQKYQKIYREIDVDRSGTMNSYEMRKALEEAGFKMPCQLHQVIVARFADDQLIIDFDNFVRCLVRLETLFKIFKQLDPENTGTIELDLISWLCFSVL
T2 sequence (P04632 1-268 partner): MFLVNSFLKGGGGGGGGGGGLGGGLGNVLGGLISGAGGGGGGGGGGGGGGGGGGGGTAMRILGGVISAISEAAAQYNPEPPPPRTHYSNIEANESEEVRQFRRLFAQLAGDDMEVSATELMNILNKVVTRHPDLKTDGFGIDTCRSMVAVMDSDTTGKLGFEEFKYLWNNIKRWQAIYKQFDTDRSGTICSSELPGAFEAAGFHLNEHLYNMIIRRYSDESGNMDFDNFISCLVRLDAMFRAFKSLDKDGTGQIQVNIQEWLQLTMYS
Procedure: The isocoumarins are irreversible inhibitors of Calpain. We obtained IC50 values for a variety of these Calpain Inhibitors as a kinetic analysis of these compounds.
Calpains I and II were purified by the method of (Yoshimura, et al. 1983). (Kitahara 1984) provides an alternative purification scheme. Calpain II may alternatively be purchased from Sigma Chemical Co. as "Calcium Activated Neutral Protease." In this assay, purified Calpain was incubated with ^14 C-methylated casein in the presence of various Heterocyclic Compounds and the amount of acid-soluble radioactivity released by the action of Calpain was measured.

Row | Structure (SMILES) | Ki [1] [µM] | IC50 [2] [µM]
1 | CCOC(=O)C(=O)C(CC)NC(=O)[C@H](C)NC(=O)[C@H](C)NC(=O)OCc1ccccc1 (mixture of isomers) [Z-Ala-Ala-DL-Abu-COOEt, Z-Ala-Ala-DL-Abu-CO2 Et] | 0.9 | –
2 | CCC(NC(=O)[C@@H]1CCCN1C(=O)[C@H](C)NC(=O)[C@H](C)NC(=O)CCC(=O)OC)C(=O)C(=O)OC (mixture of isomers) [MeO-Suc-Ala-Ala-Pro-Abu-COOMe, MeO-Suc-Ala-Ala-Pro-DL-Abu-CO2 Me] | 0.7 | –
3 | N=C(N)SCCCOc1oc(=O)c2ccccc2c1Cl [CiTprOIC, 4-chloro-3-(3-isothiureidopropoxy)isocoumarin] | – | 70
4 | N=C(N)SCCCOc1oc(=O)c2cc(N)ccc2c1Cl [NH2 -CiTPrOIC (ACITIC), 7-amino-4-chloro-3-(3-isothiureidopropoxy)isocoumarin] | – | 120
